The source made the active and inactive calls. The calls are words filed in the database; no cut-off is given here.
Assays:
[1] = test system: NCI-H460; assay: Induction of apoptosis in human NCI-H460 cells assessed as necrotic cells at 64 uM after 48 hrs by Annexin V-FITC/propidium iodide staining-based flow cytometric analysis (reference value: 2.11%); type: functional
[2] = test system: NCI-H460; assay: Induction of apoptosis in human NCI-H460 cells assessed as late apoptotic cells at 32 uM after 48 hrs by Annexin V-FITC/propidium iodide staining-based flow cytometric analysis (reference value: 1.80%); type: functional
[3] = test system: NCI-H460; assay: Inhibition of oxygen consumption rate in human NCI-H460 cells at 32 uM after 1 hr; type: functional
[4] = test system: NCI-H460; assay: Induction of apoptosis in human NCI-H460 cells after 48 hrs by Annexin V-FITC/propidium iodide staining-based flow cytometric analysis; type: functional, cell-based
[5] = test system: MCF7; assay: Antiproliferative activity against human MCF7 cells at 50 uM after 48 hrs by MTT assay; type: functional
[6] = test system: NCI-H460; assay: Induction of apoptosis in human NCI-H460 cells assessed as late apoptotic cells at 64 uM after 48 hrs by Annexin V-FITC/propidium iodide staining-based flow cytometric analysis (reference value: 1.80%); type: functional
[7] = test system: NCI-H460; assay: Induction of apoptosis in human NCI-H460 cells assessed as necrotic cells at 32 uM after 48 hrs by Annexin V-FITC/propidium iodide staining-based flow cytometric analysis (reference value: 2.11%); type: functional
[8] = test system: NCI-H460; assay: Induction of apoptosis in human NCI-H460 cells assessed as viable cells at 64 uM after 48 hrs by Annexin V-FITC/propidium iodide staining-based flow cytometric analysis (reference value: 93.9%); type: functional; conditions: NCI-H460, 48 h, read-out: Activity
[9] = test system: NCI-H460; assay: Growth inhibition of human NCI-H460 cells at 32 uM after 48 hrs by MTT assay; type: functional, cell-based
[10] = test system: U-87 MG; assay: Antiproliferative activity against human U87MG cells after 48 hrs by MTT assay; type: functional, cell-based, U-87MG ATCC
[11] = test system: NCI-H460; assay: Induction of apoptosis in human NCI-H460 cells assessed as viable cells at 32 uM after 48 hrs by Annexin V-FITC/propidium iodide staining-based flow cytometric analysis (reference value: 93.9%); type: functional; conditions: NCI-H460, 48 h, read-out: Activity
[12] = test system: NCI-H460; assay: Antiproliferative activity against human NCI-H460 cells after 48 hrs by MTT assay; type: functional, cell-based; conditions: NCI-H460, 48 h
[13] = test system: NCI-H460; assay: Induction of apoptosis in human NCI-H460 cells assessed as early apoptotic cells at 64 uM after 48 hrs by Annexin V-FITC/propidium iodide staining-based flow cytometric analysis (reference value: 2.17%); type: functional
[14] = test system: MCF7; assay: Antiproliferative activity against human MCF7 cells after 48 hrs by MTT assay; type: functional, cell-based; conditions: MCF7, 48 h
[15] = test system: NCI-H460; assay: Induction of apoptosis in human NCI-H460 cells assessed as early apoptotic cells at 32 uM after 48 hrs by Annexin V-FITC/propidium iodide staining-based flow cytometric analysis (reference value: 2.17%); type: functional
[16] = test system: HCT-116; assay: Antiproliferative activity against human HCT116 cells after 48 hrs by MTT assay; type: functional, cell-based; conditions: HCT-116, 48 h

CC[C@H]1CCC[C@H](O[C@H]2CC[C@H](N(C)C)[C@@H](C)O2)[C@@H](C)C(=O)C2=C[C@@H]3[C@@H](C=C[C@@H]4C[C@@H](O[C@@H]5O[C@@H](C)[C@H](OC)[C@@H](OC)[C@H]5OC)C[C@@H]34)[C@@H]2CC(=O)O1 [SPINOSYN A]
Activity [1]: 2.33% | Activity [2]: 4.41% | inhibition [3]: Active | Activity [4]: Dose-dependent effect | Activity [5]: 92.6% | Activity [6]: 5.33% | Activity [7]: 1.69% | viability at 64 µM [8]: 87.8% | growth inhibition (GI) [9]: inactive | IC50 [10]: 104 µM | viability at 32 µM [11]: 90.8% | IC50 [12]: 66 µM | Activity [13]: 4.53% | IC50 [14]: 16.7 µM | Activity [15]: 3.11% | IC50 [16]: 10.7 µM
